Experimental data: patent publication US20190126075A1, “FOOD AND DRINK PRODUCT CONTAINING POORLY DIGESTIBLE COMPOUND AND COLONIC-HYDROGEN-GAS PRODUCING AGENT” (Kyodo Milk Industry Co., Ltd., priority 2015, published 2019)
Marks after values point to notes of the source that are not given here.

Legend:
fecal bacteria [1] = test: H2 production in fecal incubation system, single components vs mixture of three (Example 2); assay type: cell-based, human; conditions: 14 subjects; 0.8% solution of each component in PBS
Experimental: (§1) Twenty milliliters of an anaerobic dilution solution (a solution prepared by dissolving KH2PO4, Na2HPO4, L-cysteine hydrochloride, Tween 80, and 0.1% Resazurin in a vial, jet-injecting N2 and CO2 (80%, 20%) into the vial, and autoclaving the vial sealed with a butyl rubber stopper) was added to 5 g of each of the collected samples, and the mixture was stirred by vortexing and then centrifuged (at 1000 g for 1 min.) to remove solids such as undigested food debris. 160 μL of each of the fecal suspension supernatants harboring fecal bacteria was dispensed into an Eppendorf tube, and 40 μL of each of the prepared solutions of digestion-resistant components in PBS was added to each of the Eppendorf tubes (final concentrations of digestion-resistant components: 0.5%). The Eppendorf tubes containing a mixture of fecal suspension and digestion-resistant component were placed into vial bottles (40 mm×75 mm, 50 mL) while the lids of the tubes and bottles were left open, and a mixed gas of N2 and CO2 (79.8%, 20.2%) was jet-injected to render the Eppendorf tubes and the bottles anaerobic. The vials were sealed with butyl rubber stoppers and incubated in an incubator (at 37° C. for 24 hours). The experiments were done in duplicate per sample, with each experiment being repeated three times.
(§2) Half a milliliter of the gas in each of the vial bottles was collected in a 1.0 mL gastight syringe (produced by Hamilton Company) and analyzed by TRIlyzer (Taiyo Nippon Sanso Corporation). In this process, when concentration exceeded the detection limit, 1 mL of the sample was injected into a 50 mL vial bottle, diluted 50-fold, and subjected to concentration measurement. Before gas collection, the gas in the vial bottles was stirred five times using the syringe.
Each of maltitol, galactooligosaccharide and glucomannan was dissolved in PBS to give a 0.8% solution. Similarly, in order to prepare a mixed solution of the three components, these components were mixed at a concentration of 0.8% each, and dissolved in PBS. The control used was a PBS solution not containing any of these components.
Fecal samples from 14 human healthy adult subjects (11 male, 3 female, average aged 40.9) were used.
Fecal treatment and incubation, and H2 concentration measurement, were performed by the same procedures as in Example 1.

fecal bacteria [2] = test: H2 production in fecal incubation system, single digestion-resistant components (Example 1); assay type: cell-based, human; conditions: final concentration 0.5%; for subjects whose fecal samples showed a sample/control ratio of 10 or higher: 10 subjects; for ratio of the H2 production concentration in sample relative to control: 37° C. for 24 hours
Source text: Twenty-three different types of digestion-resistant components (cellulose, isomaltooligosaccharide, lactose, fructooligosaccharide, galactooligosaccharide, cellobiose, xylooligosaccharide, xylitol, sorbitol, erythritol, maltitol, mannitol, pectin, sodium alginate, glucomannan, lignin, chitin, chitosan, resistant starch, resistant dextrin, reduced resistant dextrin, kale, or young barley leaf) were each diluted with phosphate buffered saline (PBS) to adjust the concentration to 2.5% (w/v). Among these components, those which were not completely dissolved were used in a suspended state. The control used was a PBS solution not containing any of these components.
Fecal samples were collected from 10 human healthy adult subjects (7 male, 3 female, average aged 35.8), and were used within 5 hours after defecation.
as §1, §2
The ratio of the H2 production concentration in each of the samples relative to that in the control was calculated, and those sample/control ratios of 10 or higher are shaded in the table (Table 1).

Compound | subjects whose fecal samples showed a sample/control H2 production concentration ratio of 2 or higher (fecal bacteria [1]) | subjects whose fecal samples showed a sample/control H2 production concentration ratio of 3 or higher (fecal bacteria [1]) | subjects whose fecal samples showed a sample/control H2 production concentration ratio of 5 or higher (fecal bacteria [1]) | subjects whose fecal samples showed a sample/control ratio of 10 or higher (fecal bacteria [2]) | ratio of the H2 production concentration in sample relative to control (fecal bacteria [2]; Subject No. 1 fecal sample) | ratio of the H2 production concentration in sample relative to control (fecal bacteria [2]; Subject No. 2 fecal sample) | ratio of the H2 production concentration in sample relative to control (fecal bacteria [2]; Subject No. 3 fecal sample) | ratio of the H2 production concentration in sample relative to control (fecal bacteria [2]; Subject No. 4 fecal sample) | ratio of the H2 production concentration in sample relative to control (fecal bacteria [2]; Subject No. 5 fecal sample) | ratio of the H2 production concentration in sample relative to control (fecal bacteria [2]; Subject No. 6 fecal sample) | ratio of the H2 production concentration in sample relative to control (fecal bacteria [2]; Subject No. 7 fecal sample) | ratio of the H2 production concentration in sample relative to control (fecal bacteria [2]; Subject No. 8 fecal sample) | ratio of the H2 production concentration in sample relative to control (fecal bacteria [2]; Subject No. 9 fecal sample) | ratio of the H2 production concentration in sample relative to control (fecal bacteria [2]; Subject No. 10 fecal sample)
4′-galactosyllactose [Galactooligosaccharide] | 8 of 14 | 0 of 14 | not in any | 5 of 10 | 5.3 | 18.5* | 35.8* | 16.9* | 15.4* | 22.1* | 0.8 | 0.8 | 0.1 | 5.9
O=C[C@H](O)[C@@H](O)[C@H](O[C@@H]1O[C@H](CO)[C@@H](O)[C@H](O)[C@H]1O)[C@H](O)CO [Cellobiose, cellobiose] |  |  |  | 7 of 10 | 25.7* | 37.0* | 67.3* | 76.5* | 8.1 | 52.0* | 3.1 | 7.5 | 46.4* | 18.9*
OC[C@@H](O)[C@@H](O)CO [Erythritol, erythritol] |  |  |  | 2 of 10 | 12.7* | 27.6* | 3.8 | 1.5 | 7.1 | 1.8 | 4.0 | 1.8 | 1.0 | 2.1
OC[C@H]1O[C@@H](O[C@H]2[C@H](O)[C@@H](O)C(O)O[C@@H]2CO)[C@H](O)[C@@H](O)[C@H]1O (stereo partly shown) [Lactose, lactose] |  |  |  | 4 of 10 | 4.9 | 9.5 | 36.6* | 28.7* | 22.4* | 22.1* | 0.5 | 0.7 | 0.1 | 7.1
OC[C@@H](O)[C@@H](O[C@H]1O[C@H](CO)[C@@H](O)[C@H](O)[C@H]1O)[C@H](O)[C@@H](O)CO [Maltitol, 4-O-α-D-glucopyranosyl-D-glucitol] | 9 of 14 | 5 of 14 | 2 of 14 | 6 of 10 | 12.5* | 7.2 | 386.6* | 22.1* | 2.6 | 8.4 | 315.5* | 0.8 | 55.6* | 32.3*
OC[C@@H](O)[C@@H](O)[C@H](O)[C@H](O)CO [Mannitol, mannitol] |  |  |  | 5 of 10 | 2.2 | 28.2* | 234.7* | 81.9* | 6.6 | 76.2* | 54.3* | 1.7 | 0.0 | 3.5
OC[C@@H](O)[C@@H](O)[C@H](O)[C@@H](O)CO [Sorbitol, sorbitol] |  |  |  | 4 of 10 | 31.6* | 9.6 | 33.0* | 54.8* | 3.4 | 4.2 | 68.6* | 1.7 | 0.1 | 4.5
OC[C@@H](O)[C@H](O)[C@@H](O)CO [Xylitol, xylitol] |  |  |  | 6 of 10 | 18.4* | 11.1* | 40.2* | 72.4* | 8.8 | 3.2 | 1.4 | 1.9 | 12.5* | 60.2*
